Results taken from PMC5504357, “Antifungal Potential of Copper(II), Manganese(II) and Silver(I) 1,10-Phenanthroline Chelates Against Multidrug-Resistant Fungal Species Forming the Candida haemulonii Complex: Impact on the Planktonic and Biofilm Lifestyles” (Frontiers in Microbiology, 2017).

Legend:
Candida duobushaemulonii [1] = assay: Planktonic growth, broth microdilution (CLSI M27-A3), MIC; assay type: cell-based; details: for GM-MIC: geometric mean of three C. duobushaemulonii isolates; for MIC: planktonic, 48 h, 37°C
Description: (§1) Three clinical isolates of each species that form the C. haemulonii complex were used in this study: C. haemulonii (LIPCh4 from finger nail, LIPCh7 from toe nail, and LIPCh12 from blood), C. duobushaemulonii (LIPCh1 from finger nail, LIPCh6 from toe nail, and LIPCh8 from blood) and C. haemulonii var. vulnera (LIPCh5 from toe nail, LIPCh9 from urine, and LIPCh11 from blood) (Ramos et al., [2015]). The fungal isolates were identified by the automatized system VITEK® 2 and then characterized by ITS1-5.8S-ITS2 gene sequencing (Ramos et al., [2015]). Fungal cells were cultured in Sabouraud-dextrose medium under constant agitation (130 rpm) for 48 h at 37°C. Human lung adenocarcinoma A549 cells were maintained in culture flasks containing DMEM medium supplemented with 10% fetal bovine serum at 37°C in an atmosphere of 5% CO2.
(§2) Susceptibility profile assays were performed in accordance with the broth microdilution protocol described in the document M27-A3 published by the Clinical and Laboratory Standards Institutes (CLSI, [2008]). Samples of the test chelates were dissolved in DMSO (500 μL) and then serially diluted in a 96-well plate containing RPMI 1640 (Sigma-Aldrich, USA) to give the concentration range of 0.0625-32 mg/L. Aqueous solutions of the metal-free phen ligand and the simple metal salts, MnCl2, CuCl2, and AgNO3, were also screened over the same concentration range. Caspofungin (Sigma-Aldrich) was used as a classical antifungal agent able to block the growth of all clinical isolates of C. haemulonii species as previously reported by our research group (Ramos et al., [2015]). Water dilutions containing DMSO concentrations corresponding to those used to prepare the drug solutions were assessed in parallel. Untreated and compound-treated fungal cells were incubated at 37°C for 48 h and the minimal inhibitory concentration (MIC) was established as the lowest compound concentration where no cellular growth could be detected by visual inspection in accordance to the CLSI recommendation. The geometric mean of the MIC values (GM-MIC) of each compound against all the fungal isolates was calculated using the software, Microsoft Office Excel 2013.

[2] = test system: Candida haemulonii var. vulnera; assay: as above; assay type: cell-based; details: for GM-MIC: geometric mean of three C. haemulonii var. vulnera isolates; for MIC: planktonic, 48 h, 37°C
Description: as §1, §2

Candida haemulonii [3] = assay: as above; assay type: cell-based; details: for GM-MIC: geometric mean of three C. haemulonii isolates; for MIC: planktonic, 48 h, 37°C
Description: as §1, §2

C. haemulonii complex = assay: Planktonic growth, overall across all nine isolates; assay type: cell-based, Candida haemulonii complex; details: for Overall GM-MIC / MIC: geometric mean across all nine strains; for MIC: in μM, read-out: Overall GM-MIC
Description: as §1, §2

A549 cells = assay: Mammalian cell toxicity (MTT assay) and selectivity index; assay type: cell-based, Human; details: MTT, 48 h incubation
Description: as §1
The cytotoxicity was evaluated using the MTT [3-(4,5-dimethylthiazol-2-yl)-2,5-diphenyl tetrazolium bromide] (Sigma-Aldrich) assay (Mosmann, [1983]). A549 cells (10^4) were seeded into tissue culture plates (TPP, Switzerland) and cultured for 24 h at 37°C in a 5% CO2 in order to obtain cellular confluence. The wells were then washed twice with DMEM to remove non-adherent cells and the test compounds were added (in concentrations ranging from 0.0313 to 512 μg/mL) to plates containing DMEM, followed by a 48 h incubation period under the same conditions mentioned above. The cellular viability was evaluated by adding MTT to each well and incubating the plates in the dark for 3 h, allowing the viable cells containing active mitochondrial dehydrogenase enzymes to metabolize MTT-tetrazolium salt into purple formazan. The formazan crystals were then dissolved in DMSO (100 μL) and the absorbance (450 nm) measured using a Thermomax Molecular Device microplate reader. The concentration capable of reducing cellular viability by 50% (CC50) was calculated, and the selectivity index (SI) determined using the following equation: A549 CC50/C. haemulonii complex GM-MIC.

Candida duobushaemulonii [4] = assay: Biofilm-growing cells, XTT assay, bMIC; assay type: cell-based; details: for GM-bMIC: geometric mean, C. duobushaemulonii isolates; for bMIC: mature biofilm, 48 h, 50% inhibition of metabolic activity
Procedure: (§3) The effect of the compounds on biofilm-growing cells was determined using the previously described microtiter-based technique (Ramage et al., [2001]). The fungi (10^6 yeast cells) were incubated for 48 h at 37°C in 96-well polystyrene microtiter plates (Corning®, Corning Incorporated, USA) containing Sabouraud-dextrose broth to accommodate biofilm formation. Following biofilm formation, the culture medium was aspirated and non-adherent cells removed by thoroughly washing the wells three times with sterile PBS (0.15 M NaCl, 0.01 M phosphate buffer, pH 7.2). Afterwards, the compounds, at the same concentrations used in the planktonic assays, were added to the wells, and the plates were incubated for further 48 h at 37°C. The metabolic activity was then evaluated using a colorimetric assay that measures the metabolic reduction of 2,3-bis (2-methoxy-4-nitro-5-sulfophenyl)-5-[(phenylamino) carbonyl]-2H-tetrazolium hydroxide (XTT; Sigma-Aldrich) to a water-soluble, brown formazan product (Peeters et al., [2008]). The biofilm MIC (bMIC) for each compound was established as the minimal concentration capable of inhibiting 50% of metabolic activity when compared to compound-free wells (Ziccardi et al., [2015]).

[5] = test system: Candida haemulonii var. vulnera; assay: Biofilm-growing cells, XTT assay, bMIC; assay type: cell-based; details: for GM-bMIC: geometric mean, C. haemulonii var. vulnera isolates; for bMIC: mature biofilm, 48 h, 50% inhibition of metabolic activity
Procedure: as §3

Candida haemulonii [6] = assay: Biofilm-growing cells, XTT assay, bMIC; assay type: cell-based; details: for GM-bMIC: geometric mean, C. haemulonii isolates, values marked * do not include LIP Ch4 (>512); for bMIC: mature biofilm, 48 h, 50% inhibition of metabolic activity
Procedure: as §3

[7] = test system: Candida haemulonii complex; assay: Biofilm-growing cells, overall across isolates; assay type: cell-based; details: for Overall GM-bMIC: geometric mean across strains, values marked * do not include LIP Ch4 (>512)
Procedure: as §3

Structure (SMILES)	GM-MIC (Candida duobushaemulonii [1]) [µg/mL]	MIC (Candida duobushaemulonii [1]; isolate LIP Ch1) [µg/mL]	MIC (Candida duobushaemulonii [1]; isolate LIP Ch6) [µg/mL]	MIC (Candida duobushaemulonii [1]; isolate LIP Ch8) [µg/mL]	GM-MIC [2] [µg/mL]	MIC ([2]; isolate LIP Ch5) [µg/mL]	MIC ([2]; isolate LIP Ch9) [µg/mL]	MIC ([2]; isolate LIP Ch11) [µg/mL]	GM-MIC (Candida haemulonii [3]) [µg/mL]	MIC (Candida haemulonii [3]; isolate LIP Ch4) [µg/mL]	MIC (Candida haemulonii [3]; isolate LIP Ch7) [µg/mL]	MIC (Candida haemulonii [3]; isolate LIP Ch12) [µg/mL]	Overall GM-MIC (C. haemulonii complex) [µg/mL]	MIC (C. haemulonii complex) [µM]	A549 (CC50) (A549 cells) [µg/mL]	GM-bMIC (Candida duobushaemulonii [4]) [mg/L]	bMIC (Candida duobushaemulonii [4]; isolate LIP Ch1) [mg/L]	bMIC (Candida duobushaemulonii [4]; isolate LIP Ch6) [mg/L]	bMIC (Candida duobushaemulonii [4]; isolate LIP Ch8) [mg/L]	GM-bMIC [5] [mg/L]	other results
O=[N+]([O-])[O-].[Ag+] [AgNO3, reference compound]	0.63	0.5	0.5	1	0.5	0.5	0.5	0.5	0.79	1	0.5	1	0.63	3.93	16.98	32	16	16	128	40.32	effect on planktonic fungal growth/viability (in words) (C. haemulonii complex; nine clinical isolates, 0.0625-32 mg/L): appreciably deterred fungal growth; bMIC ([5]; isolate LIP Ch5): 128 mg/L; bMIC ([5]; isolate LIP Ch9): 64 mg/L; bMIC ([5]; isolate LIP Ch13): 8 mg/L; GM-bMIC (Candida haemulonii [6]): 16^* mg/L; bMIC (Candida haemulonii [6]; isolate LIP Ch4): >512 mg/L; bMIC (Candida haemulonii [6]; isolate LIP Ch7): 8 mg/L; bMIC (Candida haemulonii [6]; isolate LIP Ch14): 32 mg/L; decrease in activity on going from planktonic to biofilm cells ([7]; biofilm MIC versus planktonic MIC): 43.8 fold; Overall GM-bMIC ([7]; in μM): 172 µM; Overall GM-bMIC [7]: 29.34 mg/L
CCO.O.O.O.O.O.O.O=C([O-])c1cccc(C(=O)[O-])c1.[Cu+2].c1cnc2c(c1)ccc1cccnc12.c1cnc2c(c1)ccc1cccnc12 [compound 3, [Cu(isoph)(phen)2].6H2O.EtOH]	5.04	4	8	4	6.35	4	8	8	10.08	8	8	16	6.86	9.21	0.89	12.70	32	8	8	12.70	bMIC ([5]; isolate LIP Ch5): 16 mg/L; bMIC ([5]; isolate LIP Ch9): 8 mg/L; bMIC ([5]; isolate LIP Ch13): 16 mg/L; GM-bMIC (Candida haemulonii [6]): 20.16 mg/L; bMIC (Candida haemulonii [6]; isolate LIP Ch4): 32 mg/L; bMIC (Candida haemulonii [6]; isolate LIP Ch7): 16 mg/L; bMIC (Candida haemulonii [6]; isolate LIP Ch14): 16 mg/L; Overall GM-bMIC ([7]; in μM): 19.95 µM; Overall GM-bMIC [7]: 14.81 mg/L
CCO.O=C([O-])CCCCCCC(=O)[O-].[Cu+2].[Cu+2].[O-][Cl+3]([O-])([O-])[O-].[O-][Cl+3]([O-])([O-])[O-].c1cnc2c(c1)ccc1cccnc12.c1cnc2c(c1)ccc1cccnc12.c1cnc2c(c1)ccc1cccnc12.c1cnc2c(c1)ccc1cccnc12 [compound 5, [Cu2(oda)(phen)4](ClO4)2.2.76H2O.EtOH]	8	8	8	8	10.08	8	16	8	10.08	8	8	16	9.33	7.09	0.98	16	32	8	16	16	bMIC ([5]; isolate LIP Ch5): 32 mg/L; bMIC ([5]; isolate LIP Ch9): 8 mg/L; bMIC ([5]; isolate LIP Ch13): 16 mg/L; GM-bMIC (Candida haemulonii [6]): 20.16 mg/L; bMIC (Candida haemulonii [6]; isolate LIP Ch4): 32 mg/L; bMIC (Candida haemulonii [6]; isolate LIP Ch7): 16 mg/L; bMIC (Candida haemulonii [6]; isolate LIP Ch14): 16 mg/L; Overall GM-bMIC ([7]; in μM): 13.19 µM; Overall GM-bMIC [7]: 17.28 mg/L
O.O.O.O.O=C1C(=O)c2cccnc2-c2ncccc21.O=C1C(=O)c2cccnc2-c2ncccc21.O=C1C(=O)c2cccnc2-c2ncccc21.[Cu+2].[O-][Cl+3]([O-])([O-])[O-].[O-][Cl+3]([O-])([O-])[O-] [compound 6, [Cu(phendione)3](ClO4)2.4H2O]	8	8	16	4	6.35	4	8	8	16	16	16	16	9.33	9.65	0.68	12.70	16	16	8	32	bMIC ([5]; isolate LIP Ch5): 32 mg/L; bMIC ([5]; isolate LIP Ch9): 32 mg/L; bMIC ([5]; isolate LIP Ch13): 32 mg/L; GM-bMIC (Candida haemulonii [6]): 50.80 mg/L; bMIC (Candida haemulonii [6]; isolate LIP Ch4): 256 mg/L; bMIC (Candida haemulonii [6]; isolate LIP Ch7): 32 mg/L; bMIC (Candida haemulonii [6]; isolate LIP Ch14): 16 mg/L; Overall GM-bMIC ([7]; in μM): 28.42 µM; Overall GM-bMIC [7]: 27.43 mg/L
